Measurements as given in paper PMC3199867, “Targeting surface nucleolin with multivalent HB-19 and related Nucant pseudopeptides results in distinct inhibitory mechanisms depending on the malignant tumor cell type” (BMC Cancer, 2011).
Where no end group is shown, it is not given here.

Key:
HuT 78 = experiment: Cell death (trypan blue uptake); assay type: cell-based, human; conditions: HuT 78 cells, 15 μM, after 24 of culture
Experimental: Human breast (MDA-MB-231, MDA-MB-435 [37]), prostate (LNCaP, from American Type Culture Collection, ATCC, Rockville, MD), and cervical (HeLa) epithelial cancer cells were grown in DMEM-glutamax medium (Gibco Invitrogen, Cergy-Pontoise, France) containing GlutaMAX™, 4.5 g/l glucose and supplemented with 10% heat-inactivated (56°C for 30 min) fetal bovine serum (FBS; Hyclone, Thermo Fisher Scientific, Inc). Human SW480 cells are derived from a grade 3-4 colon carcinoma, while the highly metastatic counterpart SW620 is established from the lymph node of a person. Both SW480 and SW620 cells (obtained from Francis Raul, IRCAD) are highly tumorigenic in nude mice. They were cultured in D-MEM, 10% FCS. The murine melanoma TIII cell line was obtained from Armelle Prévost-Blondel. Murine T29 lymphoma cells, obtained from Philippe Kastner (CNRS, Strasbourg), have been established from Ik^L/L tumors from mice carrying a hypomorphic mutation (Ik^L/L) in the Ikaros gene encoding a transcription factor that regulates lymphocyte differentiation, and acts also as a tumor suppressor in T lymphocytes. The T29 cells were cultured in RPMI medium containing 25 mM Hepes pH 7.6, 1 mM sodium pyruvate, and 10% FCS. Human leukemia cell lines, Jurkat (acute T cell leukemia), HuT 78 (cutaneous T lymphocyte), RAJI (Burkitt lymphoma), and HL60 (promyelocytic leukemia) were cultured in RPMI-1640 medium (Gibco) containing GlutaMAX™, and supplemented with 10% heat-inactivated FBS as described before. The wild-type Chinese hamster ovary cell line (CHO K1) was purchased from American Type Culture Collection (ATCC; Rockville, MD). The CHO LRP1-null cell line (CHO-13-5-1) was kindly provided by D. Strickland [47]. They were cultured in Ham's F12K medium. All cells were cultured with 10% (v/v) heat inactivated (56°C, 30 min) fetal bovine serum (FBS) (Roche Molecular Biochemicals, Indianapolis, IN) and 50 international units/mL penicillin-streptomycin (Invitrogen). Cell death was monitored conveniently by uptake of the trypan blue dye due to plasma membrane permeability of dying and/or dead cells. […]

surface nucleolin [1] = experiment: Binding of biotinylated Nucant to surface nucleolin on MDA-MB 231 cells (avidin recovery, immunoblotting); parameters: species or system human; conditions: data not presented
Experimental: (§1) Two days after seeding, subconfluent cells (about 5 × 10^6 cells/75 cm^2 flask) were incubated (45 min, 20°C) with 5 μM of HB-19/Btn. After washing extensively in PBS containing 1 mM EDTA (PBS-EDTA), nucleus-free cell extracts were prepared in lysis buffer E. The complex formed between cell-surface expressed nucleolin and HB-19/Btn was isolated by purification of the extracts using NeutrAvidin agarose (100 μl; Pierce Biotechnology) in PBS-EDTA. After 3 hours at 6°C, the avidin-agarose samples were washed extensively with PBS-EDTA. The purified surface nucleolin was eluted in the electrophoresis sample buffer containing SDS and analyzed by 10% SDS-polyacrylamide gel electrophoresis (SDS-PAGE). […] All cells investigated in this study (MDA-MB-231, MDA-MB-435, LNCaP, HeLa, SW480, SW620, and T29) expressed the cell surface nucleolin assayed by this procedure.
(§2) Figure 9 Nucant pseudopeptides bind surface nucleolin at a higher affinity compared to binding to nucleophosmin. A. Recovery of surface nucleolin and associated proteins by using biotinylated Nucant. […] Purified material was then analyzed by SDS-PAGE and stained with Brilliant Blue G-Colloidal Concentrate staining (panel Staining). Similar samples were also analyzed by immunoblotting using anti-nucleolin mAb D3 (panel anti-nucleolin) or anti-nucleophosmin mAb EP1848Y (panel anti-nucleophosmin)(Methods). […]

surface nucleolin [2] = experiment: Binding of biotinylated Nucant to surface nucleolin on HuT 78 cells (avidin recovery, immunoblotting); parameters: species or system human; conditions: HuT 78 cells, 0, 1, 2, 4, 8 μM
Experimental: as §1, §2

nucleophosmin = experiment: Binding of biotinylated Nucant to nucleophosmin on HuT 78 cells (avidin recovery, immunoblotting); parameters: species or system human; conditions: HuT 78 cells, 0, 1, 2, 4, 8 μM
Experimental: as §1, §2

HuT 78 cells = experiment: Cell entry and localization of biotinylated pseudopeptides, immunofluorescence; assay type: cell-based, human; conditions: HuT 78, 15 μM, 37°C, 5 hours, PFA/Triton fixation, anti-biotin immunofluorescence
Experimental: Figure 8 Nucant pseudopeptides are internalized into cells and accumulate in the cytoplasm without translocation to the nucleus. […] C. […] The nuclei stained with DAPI are shown on the right of each panel. Treatment of HuT 78 cells at 15 μM of biotinylated N3 or N7 leads to 25 and 40% cell death after 24 of culture, respectively.

biotinylated N7: biotinylated hexavalent N7 pseudopeptide (chain 1 KAKPGKAKPGKAKPG; chain 2 Lys-Pro-Arg; also: biotinylated (site not given here), hexavalent branched pseudopeptide, linkage not given here)
cell death (HuT 78): 40%
concentration of maximum binding to surface nucleolin (surface nucleolin [1]): 3 µM
concentration of maximum binding to surface nucleolin (surface nucleolin [2]): 4 µM
concentration at which nucleophosmin binding occurs (nucleophosmin): 8 µM
cell entry / intracellular localization (HuT 78 cells): most of the signal is located in the cytoplasm, with almost no signal in the nuclei
